Holding throughout (assay): relative viability (nuclei count vs DMSO), 5 days (fraction); higher = more cells survive
Compound in the assay “CUDC-101 + Alpelisib”: C#Cc1cccc(Nc2ncnc3cc(OC)c(OCCCCCCC(=O)NO)cc23)c1 [CUDC-101] + Cc1nc(NC(=O)N2CCC[C@H]2C(N)=O)sc1-c1ccnc(C(C)(C)C(F)(F)F)c1 [Alpelisib] (partner 2 µM)
The method in brief: (§1)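 Lung cancer cell lines were pin-tool dosed in 1536-well plates on the day after seeding, with either a lone drug or a fixed anchor-drug dose plus five library-drug doses (not always all listed) in √10 steps. Nuclei were counted on 4× images after 5 days. Relative viability is the ratio of treated-well to vehicle-well nuclei counts, with each value a median of duplicate plates.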

Compound in assay [1]: C1=CC=C2C(=C1)N=C(S2)C(C#N)C3=NC(=NC=C3)NCCC4=CN=CC=C4 + CS(=O)(=O)CCNCc1ccc(-c2ccc3ncnc(Nc4ccc(OCc5cccc(F)c5)c(Cl)c4)c3c2)o1 [Lapatinib] (partner 2 µM)
Put shortly: as §1

Compound in the assay “Vandetanib + Crizotinib”: COc1cc2/c(=N/c3ccc(Br)cc3F)nc[nH]c2cc1OCC1CCN(C)CC1 [Vandetanib] + C[C@@H](Oc1cc(-c2cnn(C3CCNCC3)c2)cnc1N)c1c(Cl)ccc(F)c1Cl [Crizotinib] (partner 1 µM)
Put shortly:
as §1

Compound in the assay “Vandetanib + Tozasertib”: COc1cc2/c(=N/c3ccc(Br)cc3F)nc[nH]c2cc1OCC1CCN(C)CC1 [Vandetanib] + Cc1cc(Nc2cc(N3CCN(C)CC3)nc(Sc3ccc(NC(=O)C4CC4)cc3)n2)n[nH]1 [Tozasertib] (partner 0.1 µM)
Put shortly:
as §1

UMC-11: the relative viability turned out to be 1.24 with CUDC-101 + Alpelisib (first compound 0.01 µM); 0.902 with CUDC-101 + Alpelisib (first compound 0.03162 µM); 0.779 with CUDC-101 + Alpelisib (first compound 0.1 µM); 0.395 with CUDC-101 + Alpelisib (first compound 0.3162 µM); 0.123 with CUDC-101 + Alpelisib (first compound 1 µM); 0.902 in assay [1] (first compound 0.005 µM). For the same cell line, the relative viability in assay [1] (first compound 0.01581 µM) worked out at 0.877; in assay [1] (first compound 0.05 µM), 0.843; in assay [1] (first compound 0.1581 µM) it was 1.59; in assay [1] (first compound 0.5 µM), 0.901; with Vandetanib + Crizotinib (first compound 0.02 µM) it was 0.588; in the assay with Vandetanib + Crizotinib (first compound 0.06325 µM), 0.654. Moreover, the relative viability with Vandetanib + Crizotinib (first compound 0.2 µM) was found to be 0.632; with Vandetanib + Crizotinib (first compound 0.6325 µM) it was 0.494; with Vandetanib + Crizotinib (first compound 2 µM), 0.61; with Vandetanib + Tozasertib (first compound 0.02 µM), 0.204; with Vandetanib + Tozasertib (first compound 0.06325 µM), 0.187; in the assay with Vandetanib + Tozasertib (first compound 0.2 µM) it was 0.175. Also, the relative viability with Vandetanib + Tozasertib (first compound 0.6325 µM) is 0.189; with Vandetanib + Tozasertib (first compound 2 µM) it was 0.205.

(Values after the supplement of paper PMC10307832.)
